Measured values reported in patent USRE40387E1, “Pharmaceutical compositions, dosage forms and methods for oral administration of epothilones” (Bristol-Myers Squibb Company, priority 2001, dated 2008).
Where “and” joins values, the source holds several entries; their conditions need not be identical. Identical values can stand only once. Like-named read-outs stand apart in the source and are kept apart here.

How the values were obtained:
[1] = Toxicokinetics in single dose IV toxicology study in rats; assay type: in vivo
Protocol: The toxicokinetics of Compound (A) were evaluated in a single dose IV toxicology study in rats. […] Compound (A) was given as an IV infusion (ca. 3 min) at doses of 10, 25, and 30 mg/kg to 3 rats/gender/dose. Serial blood samples were obtained over a period of 24 h after dosing, and plasma concentrations of Compound (A) and Compound (B) were determined using an LC/MS/MS assay with a standard curve range of 2-500 ng/mL for both analytes. At a dose of 10, 25, and 30 mg/kg, the mean CMAX values of Compound (A) in male rats were 6422, 19066, and 24414 ng/mL, respectively; in female rats, the mean CMAX values were 8384, 20524, and 25054 ng/mL, respectively. […] For doses in a ratio of 1:2.5:3 proportion, the mean CMAX values of Compound (A) for males and females were in the ratio of 1:3.0:3.8 and 1:2.5:3.0, respectively, and the AUC values were in the ratio of 1:3.1:4.9 and 1:3.5:4.2, respectively. T-HALF, mean residence time over the time interval zero to infinity MRT(INF), total body clearance (CLT), and VSS were not determined due to the limited sampling used in the study.

[2] = Pharmacokinetics and absolute oral bioavailability of formulations in beagle dogs; assay type: in vivo, adult male beagle dogs; settings: for CMAX, mean / TMAX, median / Cmax / Tmax: n = 3; for AUC(0-t) / Cmax / Tmax: male, beagle, dog, plasma; for AUC(0-t): T = 24 h; for Tmax: read-out: TMAX, median
Protocol: The absolute oral bioavailability of various formulations of Compound (A) in adult male beagle dogs (n=4) was evaluated. Compound (A) was given as a 10 min intravenous (IV) infusion (0.5 mg/kg), a buffered oral solution (2 mg/kg), and a buffered oral suspension (1 mg/kg).
The design was a single-dose, four-treatment, four-period, non-randomized, crossover design. Compound (A) was given to four adult male beagle dogs as a 10 min IV infusion (0.5 mg/kg), a buffered oral solution (2 mg/kg), or a buffered oral suspension (2 mg/kg). […] Upon reconstitution, the pH of the buffered suspension was about 8.0 and the strength was approximately 0.75 mg/mL. Due to cumulative toxicity the dose for the oral suspension scheduled during the third treatment period was reduced from 2 mg/kg to 1 mg/kg. Furthermore, the fourth treatment was not administered for lack of an evaluable formulation. The wash-out period between treatments was at least 7 days. Serial blood samples were collected over 24 h after dose administration and concentrations of Compound (A) and Compound (B) were determined using a LC/MS/MS assay with a standard curve range of 2-500 ng/mL for both analytes. The LC/MS/MS assay was the same as used in Example 1.
Analytical runs consisted of standard, quality control (QC), and study samples. The plasma volume used for analysis was 0.2 mL and the standard curve range was 2 to 500 ng/mL for both analytes, defining the lower limit of quantitation (LLQ) and upper-limit of quantitation (ULQ), respectively. If the predicted concentration of a study sample was less than that of the lowest standard, the value of the predicted concentration was reported as <LLQ. […]. If the predicted concentration was greater than that of the highest standard, the result of that analysis was reported as >ULQ and an appropriate volume of that sample was diluted with blank plasma and reanalyzed.
Four adult male dogs with venous access for drug administration and blood collection were selected for the study. The dogs were acclimated for at least one week prior to study initiation and were housed in individual steel cages. Animals were identified by a unique number and by a tag attached to the cage. The dogs were offered drinking water ad libitum, and fed once a day with standard canine diet except for an overnight (about 12 h) fast prior to dosing which was continued until 4 h after dosing. Fifteen (15) minutes prior to administration of the buffered oral suspension, the dogs were pretreated with pentagastrin (6 :g/kg; intramuscularly). Pentagastrmn pretreatment was used only for the oral suspension leg. The IV dose was administered as a constant-rate infusion over a period of 10 min using a calibrated infusion pump. The oral solution and suspension doses were administered by gavage and the gavage tubes were rinsed with 20 mL of water.
Serial blood samples (3 mL) were collected at predose, and 10 min (IV only; end-of-infusion), 15 min, 20 min (IV only), 30 min, and 45 min, and 1 h, 1.5 h, 2 h, 4 h, 6 h, 8 h, 12 h, and 24 h after dosing. Blood samples were collected into Vacutainer® tubes containing K3-EDTA as the anticoagulant and the contents of each tube were mixed by gently inverting the tube. The blood samples were then placed immediately on chipped ice. Plasma was obtained within 30 min of collection by centrifuging the tubes at approximately 4° C. and 2000×g for 5 min. Plasma samples were stored at or below −20° C. until analyzed for the concentrations Compound (A) and Compound (B).
The peak plasma concentration (CMAX) and the time to reach peak concentration (TMAX) were recorded directly from experimental observations. The area under the plasma concentration-time curve from time zero to T (AUC(0−T)), where T is the time of the last measurable plasma concentration, was calculated using the trapezoidal rule (See, M. Gibaldi, et al., Pharmacokinetics, 2nd ed., New York, N.Y., Marcel Decker, p. 445-91982). […]

[3] = Kinetics in single dose IV toxicology study in dogs; assay type: in vivo; settings: for mean CMAX in plasma: combined across gender; for AUC / Cmax: both sexes, dog, plasma; for Cmax: read-out: mean CMAX of Compound (B) in plasma
Protocol: The kinetics of Compound (A) were also evaluated as part of a single dose IV toxicology study. Compound (A) was given as an IV infusion (ca. 15 min) at doses of 0.5 and 5 mg/kg to 2 dogs/gender/dose. […] Blood samples were obtained over a period of 48 h after dosing, and plasma concentrations of Compound (A) and Compound (B) were determined using the LC/MS/MS assay with a standard curve range of 2-500 ng/mL for both analytes. […] T-HALF, MRT(INF), CLT, and VSS were not determined due to the limited sampling used in the study.

[4] = female rats, IV infusion 10 mg/kg
[5] = female rats, IV infusion 25 mg/kg
[6] = female rats, IV infusion 30 mg/kg
[7] = male rats, IV infusion 10 mg/kg
[8] = male rats, IV infusion 25 mg/kg
[9] = male rats, IV infusion 30 mg/kg
[10] = dogs, IV Compound (A) 0.5 mg/kg
[11] = dogs, buffered oral solution of Compound (A) 2 mg/kg
[12] = two dogs with both IV and oral solution data
[13] = IV infusion of Compound (A) 0.5 mg/kg
[14] = IV infusion of Compound (A) 5 mg/kg

In the case of `C/C(=C\c1csc(C)n1)[C@@H]1C[C@@H]2O[C@]2(C)CCC[C@H](C)[C@H](O)[C@@H](C)C(=O)C(C)(C)[C@@H](O)CC(=O)N1` (relative stereo) [Compound (A), [1S-[1R*,3R*(E),7R*,10S*,11R*,12R*,16S*]]-7,11-dihydroxy 8,8,10,12,16-pentamethyl-3-[1-methyl-2-(2-methyl-4-thiazolyl)ethenyl-4-aza-17-oxobicyclo[14.1.0]heptadecane-5,9-dione], the “mean CMAX” value [1, 4] is reported as 8384 ng/mL, the “mean area under the concentration vs. time curve (AUC)” value [1, 4] is reported as 8156 ng·h/mL and the “mean CMAX” value [1, 5] is reported as 20524 ng/mL. For the same compound, the “mean area under the concentration vs. time curve (AUC)” value [1, 5] was 28476 ng·h/mL, the “mean CMAX” value [1, 6] was 25054 ng/mL and the “mean area under the concentration vs. time curve (AUC)” value [1, 6] was 34563 ng·h/mL. For the same compound, the “mean CMAX” value [1, 7] was 6422 ng/mL, the “mean area under the concentration vs. time curve (AUC)” value [1, 7] was 3864 ng·h/mL and the “mean CMAX” value [1, 8] was 19066 ng/mL. For the same compound, the “mean area under the concentration vs. time curve (AUC)” value [1, 8] was 11980 ng·h/mL, the “mean CMAX” value [1, 9] was 24414 ng/mL and the “mean area under the concentration vs. time curve (AUC)” value [1, 9] was 19269 ng·h/mL. For the same compound, the “CMAX, mean” value [2, 10] was 1120 (189) ng/mL, the “TMAX, median” value [2, 10] was 10.2 min and the “AUC(0−T), mean (SD)” value [2, 11] was 560 (159) h.ng./mL. The “CMAX, mean” value [2, 11] was 365 (40.9) ng/mL, the “TMAX, median” value [2, 11] was 30 min and the “mean AUC after oral solution higher than dose-normalized mean AUC of oral toxicity study” value ([2]; dogs, oral solution 1.3 mL/kg vs 0.4 mL/kg) was “approximately 2 fold”. For the same compound, the “absolute oral bioavailability, individual dogs” value [2, 12] was 48.3% and 30.6%, the “absolute oral bioavailability, mean value” [2, 12] was 39.5% and the “mean AUC in plasma” value [3, 13] was 316 ng·h/mL. For the same compound, the “mean CMAX in plasma” value [3, 13] was 218 ng/mL, the “mean AUC in plasma” value [3, 14] was 6925 ng·h/mL and the “mean CMAX in plasma” value [3, 14] was 5118 ng/mL.

`CC1=NC(/C=C/[C@@H]2C[C@@H](O)[C@](C)(O)CCC[C@H](C)[C@H](O)[C@@H](C)C(=O)C(C)(C)[C@@H](O)CC(=O)N2)CS1` (some centres unmarked) [Compound (B)] showed an AUC ([1]; both sexes, rat, plasma, rats, IV Compound (A) 10-30 mg/kg, read-out: AUC of Compound (B) across gender and dose groups) of 222 to 2000 ng·h/mL, a Cmax ([1]; both sexes, rat, plasma, rats, IV Compound (A) 10-30 mg/kg, read-out: CMAX of Compound (B) across gender and dose groups) of 499 to 1790 ng/mL and a mean plasma concentration ([2]; dogs, IV Compound (A) 0.5 mg/kg, 0.17 h) of 0 ng/mL. It also gave a mean plasma concentration ([2]; dogs, IV Compound (A) 0.5 mg/kg, 0.75 h) of 0 ng/mL, a mean plasma concentration ([2]; dogs, IV Compound (A) 0.5 mg/kg, 1 h) of 0 ng/mL and a mean plasma concentration ([2]; dogs, IV Compound (A) 0.5 mg/kg, 1.5 h) of 0 ng/mL. The mean plasma concentration ([2]; dogs, IV Compound (A) 0.5 mg/kg, 2 h) was 0 ng/mL, the mean plasma concentration ([2]; dogs, IV Compound (A) 0.5 mg/kg, 4 h) was 0 ng/mL and the mean plasma concentration ([2]; dogs, IV Compound (A) 0.5 mg/kg, 6 h) was 0 ng/mL. The mean plasma concentration ([2]; dogs, IV Compound (A) 0.5 mg/kg, 8 h) was 0 ng/mL, the mean plasma concentration ([2]; dogs, IV Compound (A) 0.5 mg/kg, 12 h) was 0 ng/mL and the mean plasma concentration ([2]; dogs, IV Compound (A) 0.5 mg/kg, 24 h) was 0 ng/mL. It also gave a mean plasma concentration ([2]; dogs, buffered oral solution of Compound (A) 2 mg/kg, 0.25 h) of 4.1 ng/mL, a mean plasma concentration ([2]; dogs, buffered oral solution of Compound (A) 2 mg/kg, 0.5 h) of 21.3 ng/mL and a mean plasma concentration ([2]; dogs, buffered oral solution of Compound (A) 2 mg/kg, 0.75 h) of 27.2 ng/mL. It also gave a mean plasma concentration ([2]; dogs, buffered oral solution of Compound (A) 2 mg/kg, 1 h) of 23.8 ng/mL, a mean plasma concentration ([2]; dogs, buffered oral solution of Compound (A) 2 mg/kg, 2 h) of 8.4 ng/mL and a mean plasma concentration ([2]; dogs, buffered oral solution of Compound (A) 2 mg/kg, 4 h) of 2.4 ng/mL. It also gave a mean plasma concentration ([2]; dogs, buffered oral solution of Compound (A) 2 mg/kg, 6 h) of 0.8 ng/mL, a mean plasma concentration ([2]; dogs, buffered oral solution of Compound (A) 2 mg/kg, 8 h) of 0 ng/mL and a mean plasma concentration ([2]; dogs, buffered oral solution of Compound (A) 2 mg/kg, 12 h) of 0 ng/mL. It also gave a mean plasma concentration ([2]; dogs, buffered oral solution of Compound (A) 2 mg/kg, 24 h) of 0 ng/mL, an AUC(0-t) [2, 10] of 0.69 ng·h/mL and a Cmax [2, 10] of 3.8 ng/mL. The Tmax [2, 10] was 10.2 min, the AUC(0-t) [2, 11] was 45.2 ng·h/mL and the Cmax [2, 11] was 27.2 ng/mL. The Tmax [2, 11] was 45 min, the AUC [3, 13] was 55 ng·h/mL and the Cmax [3, 13] was 95.6 ng/mL. The AUC [3, 14] was 1110 ng·h/mL and the Cmax [3, 14] was 984 ng/mL.
